Assay results reported in article PMC5581131, “The novel sphingosine-1-phosphate receptors antagonist AD2900 affects lymphocyte activation and inhibits T-cell entry into the lymph nodes” (Oncotarget, 2017).

Experiments:
S1P5 = target: T1, S1P5 (Homo sapiens, UniProt Q9H228); assay: S1P5 agonist test, Tango S1P5-bla U-2 OS cells; type: cell-based; conditions: S1P5 TANGO U-2 OS cell line
T1 construct: Tango fusion partner (protease site + GAL4-VP16 transcription factor); expressed in transfected cells; host or cells: Tango S1P5-bla U-2 OS cells
T1 sequence (Q9H228 whole entry, the tested form may be a part): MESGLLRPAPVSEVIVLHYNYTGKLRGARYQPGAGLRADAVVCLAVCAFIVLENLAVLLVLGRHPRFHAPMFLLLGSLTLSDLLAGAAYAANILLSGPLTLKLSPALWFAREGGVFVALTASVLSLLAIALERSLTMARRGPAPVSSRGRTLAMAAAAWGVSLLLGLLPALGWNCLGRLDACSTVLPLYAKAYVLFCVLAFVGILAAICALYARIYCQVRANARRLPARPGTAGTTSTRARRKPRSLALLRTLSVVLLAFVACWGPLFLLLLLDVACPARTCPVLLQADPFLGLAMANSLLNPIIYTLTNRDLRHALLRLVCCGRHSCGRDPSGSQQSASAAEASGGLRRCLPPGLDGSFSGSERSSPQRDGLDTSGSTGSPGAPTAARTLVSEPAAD
Method: Since AD2900 is a sphingolipid analogue with properties that resemble those of S1P, we intended to examine its ability to interact with the S1P receptors. To delineate whether AD2900 can function as an agonistic or antagonistic compound to any of the S1P receptors, we used a high-throughput screening cell-based assay, employing cell lines stably transfected with human S1P receptors 1, 2, 3, 4, or 5 [37]. In this experiment, a compound with an IC50 or EC50 value ≤10 μM for a certain S1P receptor is considered active as an antagonist or an agonist, respectively. The results illustrate that AD2900 acts as an antagonist to all S1P receptors (Table 1, Supplementary Figure 3). […] No agonist activation was evident.
The S1P1 agonist test and S1P2, S1P3, S1P4, and S1P5 agonist and antagonist tests were conducted as previously described using S1P1 CRE-bla CHO cells, S1P2 CRE-bla CHO cells, S1P3 NFAT-bla CHO cells, Tango™ S1P4 (EDG6)-bla U-2 OS cells, and Tango™ S1P5 ([…])-bla U-2 OS cells. The S1P1 antagonist assay was carried out according to the manufacturer’s instructions using a Tango™ S1P1 (EDG1)-bla U-2 OS Cell-Based Assay (Invitrogen, NY, USA).

TNF-α = TNF-α secretion from activated PBMCs, ELISA; type: cell-based, human; conditions: 1-day pretreatment, 5th day of MLR
Method: To better characterize the effect of AD2900 on activated PBMCs, the influence of AD2900 on apoptosis and cytokine secretion was tested. After 5 days of MLR, the cells were collected for apoptosis evaluation, while the supernatant was collected for ELISA test. Apoptosis was induced on the activated PBMCs only at higher concentrations of AD2900, above 10 μM (Figure 1C). Therefore, only a small part of the effect of AD2900 on the suppression of lymphocytic proliferation might be attributed to apoptosis. AD2900-induced inhibition of proliferation was accompanied by a reduced level of IFN-γ concentrations in the supernatant (Figure 1D).
Human PBLs were collected from human whole blood collected from healthy donors. Subsequently, the cells were centrifuged on a Ficoll-Paque gradient (Fresenius Kabi Norge AS, Oslo, Norway) and were isolated from the interphase layer. For the human MLR experiment, PBMCs from one healthy donor were pretreated for 1 day with AD2900, AD2730, AD2750, YZ297, YZ158, FTY720, or SEW2871. […] For the thymidine incorporation assay, after 4 days of co-culture, cells were pulsed with ^3H-thymidine at 1 μCi (0.037MBq) per well (PerkinElmer, MA, USA) for 16 additional hours and then harvested onto glass-fiber filters. ^3H-thymidine incorporation was measured using Top Count. […]

Molt4 = assay: XTT viability assay, Molt4; type: cell-based, human; conditions: 1-day treatment, compared with Jurkat (>10 μM)
Method: Figure 1 AD2900 inhibits human lymphocyte proliferation in allogeneic activation (A, B) The levels of proliferative response of human peripheral blood lymphocytes (PBMCs) after 1-day pretreatment with different concentrations of AD2900, AD2750, YZ138, YZ158, and YZ297 (A) or AD2900, FTY720, and SEW2871 (B) were tested by human allogeneic mixed lymphocyte reaction (MLR) assay, followed by a [3H] thymidine incorporation analysis. (C) Apoptosis of AD2900-treated activated PBMCs was tested by AnnexinV-propidium iodide (PI) FACS analysis following 1-day AD2900 pretreatment and MLR. All the samples were compared to the untreated PBMC control. (D) IFN-γ secretion from activated PBMCs was tested by ELISA following a 1-day AD2900 pretreatment in MLR. On the 5th day of hMLR, supernatants were collected and assayed for the level of IFN-γ. (E) Jurkat cell viability after a 1-day treatment with different concentrations of AD2900, FTY720, and SEW2871 was tested by XTT viability assay. (F) H9, CEM/C1, and Molt4 cell viability after a 1-day treatment with different concentrations of AD2900 was tested by XTT viability assay. Graphs summarize the results of at least three independent experiments. Results of Student’s t-test: *(P < 0.05, two-tailed test), ** (P < 0.01, two-tailed test), *** (P < 0.001, two-tailed test), **** (P < 0.0001, two-tailed test). […]

CCCCCCCCCCCCCCCCNC(CO)(CO)CO [AD2900]
EC50 (S1P5): > 50 µM | TNF-α concentration in the culture media (TNF-α): not influenced | cell viability, Molt4 (Molt4): reduced cell viability could be detected even at lower concentrations
